Measurements: patent EP0115929A1, “Novel organic platinum complex and process for the preparation thereof” (priority 1983, dated 1984)

Experiments:
Leukemia L-1210 = assay: Effect on life span of mice implanted with Leukemia L-1210 (Method B); assay type: in vivo; conditions: for ILS30: denominator in brackets of the therapeutic index cell; for ILS30 / OD: dose column in mg/kg/day; for 60-day survivors: survivors/mice in group; for OD: numerator in brackets of the therapeutic index cell; for increase in the life span of mice: dose of 50 mg/kg/day
Method: […] test compound was begun 24 hours after the inoculation of the leukemic cells and performed once a day for 5 days. The survival days of the treated mice were observed.

[1] = test system: Ehrlich ascites carcinoma; assay: Preventive effect against the growth of Ehrlich ascites carcinoma (Method A); assay type: in vivo, mice; conditions: for MTD: footnote *3 in image, dose column in mg/kg/day; for MED: footnote *4 in image, b22: minimum effective dose per day which causes 100 % inhibition, in mg/kg/day; for M.E.D.: minimum effective dose per day which causes 100 % inhibition of Ehrlich ascites carcinoma
Excerpt: It may be useful to prolong the survival time of warm-blood .animals, including human,.afflicted with tumors and/or minimize the growth of tumors in said animals. […] The compound of the present invention is also useful for the treatment of various other tumors such as prostate tumor, orchis tumor, ovary tumor, malignant lymphoma, leukemia, breast cancer and the like.

[2] = dose 1.56 mg/kg/day, (C - T)/C x 100
[3] = dose 3.12 mg/kg/day, (C - T)/C x 100
[4] = dose 6.25 mg/kg/day, (C - T)/C x 100
[5] = dose 25 mg/kg/day, (C - T)/C x 100
[6] = dose 100 mg/kg/day, (C - T)/C x 100
[7] = dose 200 mg/kg/day, cell prints toxicity instead of inhibition (footnote *6 in image)

Row | Substance | ILS30 (Leukemia L-1210) | ILS (%) (Leukemia L-1210; dose 1.56 mg/kg/day) | 60-day survivors (Leukemia L-1210; dose 1.56 mg/kg/day) | ILS (%) (Leukemia L-1210; dose 3.12 mg/kg/day) | 60-day survivors (Leukemia L-1210; dose 3.12 mg/kg/day) | ILS (%) (Leukemia L-1210; dose 6.25 mg/kg/day) | 60-day survivors (Leukemia L-1210; dose 6.25 mg/kg/day) | ILS (%) (Leukemia L-1210; dose 12.5 mg/kg/day) | 60-day survivors (Leukemia L-1210; dose 12.5 mg/kg/day) | ILS (%) (Leukemia L-1210; dose 25 mg/kg/day) | 60-day survivors (Leukemia L-1210; dose 25 mg/kg/day) | ILS (%) (Leukemia L-1210; dose 50 mg/kg/day) | 60-day survivors (Leukemia L-1210; dose 50 mg/kg/day) | ILS (%) (Leukemia L-1210; dose 100 mg/kg/day) | 60-day survivors (Leukemia L-1210; dose 100 mg/kg/day) | OD (Leukemia L-1210) | Inhibition rate (%) [1, 2] [%] | Inhibition rate (%) [1, 3] [%] | Inhibition rate (%) [1, 4] [%] | Inhibition rate (%) [1, 5] [%] | also measured
1 | cis-Dioxamato(2-aminomethylpyridine) platinum (II) [Compound 3] | 1.65 | 28.6 | 0/4 | 47.1 | 0/4 | 85.7 | 0/4 | 90.0 | 0/4 | 100.0 | 0/4 | >607.1 | 3/4 | >757.1 | 4/4 | 100 |  |  |  |  | 
2 | cis-Malonato(2-aminomethylpyridine) platinum (II) [Compound 2] | 1.8 | 25.7 | 0/4 | 47.1 | 0/4 | 61.4 | 0/4 | 92.9 | 0/4 | 185.7 | 0/4 | >757.1 | 4/4 | >757.1 | 4/4 | 100 | 12.9 | 100 | 100 | 100 | Inhibition rate (%) [1, 6]: 100%; Inhibition rate (%) [1, 7]: Toxic(5/5)^*6; MTD [1]: 100; MED [1]: 3.12; M.E.D. [1]: 3.12 mg/kg/day; increase in the life span of mice (Leukemia L-1210): more than 745%
3 | cis-Oxalato(2-aminomethylpyridine) platinum (II) [Compound 1] | 1.3 | 33.8 | 0/4 | 52.1 | 0/4 | 80.3 | 0/4 | >269.0 | 1/4 | >463.4 | 2/4 | >745.1 | 4/4 | >745.1 | 4/4 | 100 | 21.9 | 100 | 100 | 100 | Inhibition rate (%) [1, 6]: 100%; Inhibition rate (%) [1, 7]: Toxic(5/5)^*6; MTD [1]: 100; MED [1]: 3.12; M.E.D. [1]: 3.12 mg/kg/day; ILS (%) (Leukemia L-1210; dose 0.78 mg/kg/day): 19.7%; 60-day survivors (Leukemia L-1210; dose 0.78 mg/kg/day): 0/4; increase in the life span of mice (Leukemia L-1210): more than 745%
